Results on 30 molecules are retold here after US9221822B2, “Thiazolopyrimidine modulators as immunosuppressive agents” (Katholieke Universiteit Leuven, K.U.Leuven R&D, priority 2009, dated 2015).

The first test deals with Human peripheral blood mononuclear cells (PBMCs) as Responder cells, RPMI 1788 Stimulator cells. In words: Mixed Lymphocyte Reaction (MLR) test. Type of test: cell-based. The settings on record: Homo sapiens, RPMI-1788, lowest concentration giving 50% inhibition of the MLR; 6 days coculture, 3H-thymidine incorporation. Here is the method: Human peripheral blood mononuclear cells (PBMCs) were isolated from buffy coats, obtained from healthy blood donors by Ficoll (Lymphoprep, Axis-Shield PoC AS, Oslo, Norway) density-gradient centrifugation. The cells at the Ficoll-plasma interface were washed three times and used as “Responder” cells. RPMI 1788 (ATCC, N^o CCL-156) cells were treated with mitomycin C (Kyowa, Nycomed, Brussel, Belgium) and used as “Stimulator” cells. Responder cells (0.12×10^6), Stimulator cells (0.045×10^6) and compounds (in different concentrations) were cocultured for 6 days in RPMI 1640 medium (BioWhittaker, Lonza, Belgium) supplemented with 10% fetal calf serum, 100 U/ml Geneticin (Gibco, LifeTechnologies, UK). Cells were cultured in triplicate in flat-bottomed 96-well microtiter tissue culture plates (TTP, Switzerland). After 5 days, cells were pulsed with 1 μCi of methyl-^3H thymidine (MP Biomedicals, USA), harvested 18 h later on glass filter paper and counted. Proliferation values were expressed as counts per minute (cpm), and converted to % inhibition with respect to a blank MLR test (identical but without added compound). […]
A general note: Incorporation of labelled thymidine or its analogues reports DNA synthesis.
As to `Nc1nc(N2CCN(C(=O)COc3ccc(Cl)cc3)CC2)c2nc(Nc3ccc(F)cc3)sc2n1` [Example 127, 5-amino-7-[4-(4-chlorophenoxyacetyl)piperazin-1-yl]-2-(4-fluorophenylamino)-thiazolo[5,4-d]pyrimidine], half-maximal inhibition (IC50) required 6.77 µM. Turning to `Nc1nc(N2CCN(C(=O)COc3cccc([N+](=O)[O-])c3)CC2)c2nc(-c3ccc(F)cc3)sc2n1` [Example 129, 5-amino-2-(4-fluorophenyl)-7-(4-[2-(3-nitrophenoxy)acetyl]-piperazin-1-yl)-thiazolo[5,4-d]pyrimidine], the IC50 – broadly, the concentration at which inhibition is half-maximal – turned out to be 0.29 µM. Compared with the last molecule, the IC50 is about 23-fold lower. As for `Nc1nc(N2CCN(C(=O)COc3ccccc3)CC2)c2nc(-c3ccc(F)cc3)sc2n1` [Example 130, 5-amino-2-(4-fluorophenyl)-7-(4-(2-phenoxyacetyl)-piperazin-1-yl)-thiazolo[5,4-d]pyrimidine], half-maximal inhibition (IC50) was put at 0.35 µM. For `Nc1nc(N2CCN(C(=O)COc3cccc([N+](=O)[O-])c3)CC2)c2nc(CCc3ccc(F)cc3)sc2n1` [Example 131, 5-amino-2-[2-(4-fluorophenyl)ethyl]-7-(4-[2-(3-nitrophenoxy)acetyl]piperazin-1-yl)-thiazolo[5,4-d]pyrimidine], the IC50 was 3.25 µM. As to `Nc1nc(N2CCN(C(=O)Cc3ccc(Cl)cc3)CC2)c2nc(CCc3ccc(F)cc3)sc2n1` [Example 132, 5-amino-2-[2-(4-fluorophenyl)ethyl]-7-(4-[2-(4-chlorophenyl)acetyl]piperazin-1-yl)-thiazolo[5,4-d]pyrimidine], the midpoint of inhibition, the IC50, lay at 0.44 µM.

The molecule `Cc1cccc(NC(=O)N2CCN(c3nc(N)nc4sc(CCc5ccc(F)cc5)nc34)CC2)c1` [Example 133, 5-amino-2-[2-(4-fluorophenyl)ethyl]-7-(4-m-tolylcarbamoylpiperazin-1-yl)-thiazolo[5,4-d]pyrimidine] gave an IC50 greater than 10 µM. `Nc1nc(N2CCN(C(=O)COc3ccccc3)CC2)c2nc(CCc3ccc(F)cc3)sc2n1` [Example 134, 5-amino-2-[2-(4-fluorophenyl)ethyl]-7-(4-[2-phenoxyacetyl]piperazin-1-yl)-thiazolo[5,4-d]pyrimidine] gave an IC50 of 4.92 µM. Still for that read-out and setting: for `Nc1nc(N2CCN(C(=O)c3ccc(Cl)cc3)CC2)c2nc(CCc3ccc(F)cc3)sc2n1` [Example 135, 5-amino-2-[2-(4-fluorophenyl)ethyl]-7-[4-(4-chlorobenzoyl)piperazin-1-yl]-thiazolo[5,4-d]pyrimidine] the value was greater than 10 µM. In turn, `Nc1nc(N2CCN(C(=O)CCc3ccccc3)CC2)c2nc(CCc3ccc(F)cc3)sc2n1` [Example 136, 5-amino-2-[2-(4-fluorophenyl)ethyl]-7-[4-(3-phenylpropionyl)piperazin-1-yl]-thiazolo[5,4-d]pyrimidine] came in with an IC50 greater than 10 µM. The same measure, in the same setting: for `Nc1nc(N2CCN(S(=O)(=O)Cc3ccccc3)CC2)c2nc(CCc3ccc(F)cc3)sc2n1` [Example 137, 5-amino-2-[2-(4-fluorophenyl)ethyl]-7-[4-phenylmethanesulfonylpiperazin-1-yl]-thiazolo[5,4-d]pyrimidine] the value was 6.68 µM; for `Nc1nc(N2CCCN(C(=O)COc3ccc(Cl)cc3)CC2)c2nc(CCc3ccc(F)cc3)sc2n1` [Example 138, 5-amino-2-[2-(4-fluorophenyl)ethyl]-7-(4-[2-(4-chlorophenoxy)acetyl]homopiperazin-1-yl)-thiazolo[5,4-d]pyrimidine], 2.1 µM; for `CN(C(=O)CN1CCN(c2nc(N)nc3sc(CCc4ccc(F)cc4)nc23)CC1)c1ccccc1` [Example 139, 5-amino-2-[2-(4-fluorophenyl)ethyl]-7-(4-[(methylphenylcarbamoyl)-methyl]piperazin-1-yl)-thiazolo[5,4-d]pyrimidine], 3.29 µM. Still for that read-out and setting: the same measure for `Nc1nc(N2CCN(c3nccs3)CC2)c2nc(CCc3ccc(F)cc3)sc2n1` [Example 140, 5-amino-2-[2-(4-fluorophenyl)ethyl]-7-(4-thiazol-2-yl-piperazine-1-yl)-thiazolo[5,4-d]pyrimidine]: 8.82 µM; for `Nc1nc(N2CCN(CC(=O)NCCc3ccccc3)CC2)c2nc(CCc3ccc(F)cc3)sc2n1` [Example 141, 5-amino-2-[2-(4-fluorophenyl)ethyl]-7-(4-(phenethylcarbamoyl-methyl)piperazin-1-yl)-thiazolo[5,4-d]pyrimidine]: 1.41 µM; for `Nc1nc(N2CC[C@@H](NC(=O)COc3ccc(Cl)cc3)C2)c2nc(CCc3ccc(F)cc3)sc2n1` [Example 143, 5-amino-2-[2-(4-fluorophenyl)ethyl]-7-(3-(R)-[2-(4-chlorophenoxy)-acetylamino]pyrrolidin-1-yl)-thiazolo[5,4-d]pyrimidine]: greater than 10 µM. On the same count and under the same terms, for `Nc1nc(N2CC[C@@H](NC(=O)c3ccc(Cl)cc3)C2)c2nc(CCc3ccc(F)cc3)sc2n1` [Example 144, 5-amino-2-[2-(4-fluorophenyl)ethyl]-7-(3-(R)-(4-chlorobenzoylamino)-pyrrolidin-1-yl)-thiazolo[5,4-d]pyrimidine] the value was 5.13 µM; for `Nc1nc(NC2CCCN(C(=O)OCc3ccccc3)C2)c2nc(CCc3ccc(F)cc3)sc2n1` (stereo not drawn) [Example 145, 5-amino-2-[2-(4-fluorophenyl)ethyl]-7-(1-benzyloxycarbonylpiperidin-3-ylamino)-thiazolo[5,4-d]pyrimidine], 4.35 µM; for `Nc1nc(N[C@H]2CCN(C(=O)COc3ccc(Cl)cc3)C2)c2nc(CCc3ccc(F)cc3)sc2n1` [Example 147, 5-amino-2-[2-(4-fluorophenyl)ethyl]-7-(1-(4-chlorophenoxyacetyl)pyrrolidin-3-(S)-ylamino)-thiazolo[5,4-d]pyrimidine], 4.52 µM. `Nc1nc(N2CCC(C(=O)c3ccccc3)CC2)c2nc(CCc3ccc(F)cc3)sc2n1` [Example 148, 5-amino-2-[2-(4-fluorophenyl)ethyl]-7-(4-benzoylpiperidine-1-yl)-thiazolo[5,4-d]pyrimidine] showed an IC50 of 2.61 µM. `Nc1nc(N2CCN(CCOc3ccccc3)CC2)c2nc(CCc3ccc(F)cc3)sc2n1` [Example 149, 5-amino-2-[2-(4-fluorophenyl)ethyl]-7-(4-(2-phenoxyethyl)piperazin-1-yl)-thiazolo[5,4-d]pyrimidine] yielded an IC50 of 5.76 µM. `CCC(c1ccc(F)cc1)c1nc2c(N3CCN(C(=O)COc4ccc(Cl)cc4)CC3)nc(N)nc2s1` (stereo not drawn) [Example 150, 5-amino-2-[1-(4-fluorophenyl)propyl]-7-(4-[2-(4-chlorophenoxy)acetyl]piperazin-1-yl)thiazolo[5,4-d]pyrimidine] came in with an IC50 of 5.39 µM. This IC50 and that of the molecule before are within 1.5-fold of each other. Still for that read-out and setting: the same measure for `Nc1nc(N2CCN(C(=O)COc3ccc(Cl)cc3)CC2)c2nc(C(c3ccc(F)cc3)C3CCCC3)sc2n1` (stereo not drawn) [Example 151, 5-amino-2-[cyclopentyl-(4-fluorophenyl)methyl]-7-(4-[2-(4-chlorophenoxy)acetyl]piperazin-1-yl)thiazolo[5,4-d]pyrimidine]: greater than 10 µM. The molecule `Nc1nc(N2CCN(C(=O)COc3ccc(Cl)cc3)CC2)c2nc(CCc3cccs3)sc2n1` [Example 154, 5-amino-2-(2-thiophen-2-ylethyl)-7-(4-[2-(4-chloro-phenoxy)acetyl]piperazin-1-yl)thiazolo[5,4-d]pyrimidine] showed an IC50 of 0.79 µM. `Nc1nc(N2CCN(C(=O)Cc3ccc(Cl)cc3)CC2)c2nc(CCc3cccs3)sc2n1` [Example 155, 5-amino-2-(2-thiophen-2-ylethyl)-7-(4-[2-(4-chloro-phenyl)acetyl]piperazin-1-yl)thiazolo[5,4-d]pyrimidine] yielded an IC50 greater than 10 µM. In turn, `Nc1nc(N2CCN(C(=O)c3ccc(Cl)cc3)CC2)c2nc(CCc3cccs3)sc2n1` [Example 156, 5-amino-2-(2-thiophen-2-ylethyl)-7-(4-(4-chloro-benzoyl)piperazin-1-yl)thiazolo[5,4-d]pyrimidine] gave an IC50 greater than 10 µM. `Cc1cccc(NC(=O)N2CCN(c3nc(N)nc4sc(CCc5cccs5)nc34)CC2)c1` [Example 157, 5-amino-2-(2-thiophen-2-ylethyl)-7-(4-m-tolylcarbamoylpiperazin-1-yl)thiazolo[5,4-d]pyrimidine] gave an IC50 of 0.63 µM. In other words, the sub-micromolar range. `Nc1nc(N2CCN(C(=O)COc3ccc(Cl)cc3)CC2)c2nc(-c3ccc(F)cc3)oc2n1` [Example 169, 1-(4-(5-amino-2-(4-fluorophenyl)oxazolo[5,4-d]pyrimidin-7-yl)piperazin-1-yl)-2-(4-chlorophenoxy)ethanone]: the half-inhibitory concentration (IC50) is 3 µM. On the same count and under the same terms, the same measure for `Nc1nc(N2CCN(C(=O)COc3ccc(Cl)cc3)CC2)c2nc(CCc3ccc(F)cc3)oc2n1` [Example 172, 1-(4-(5-amino-2-(4-fluorophenethyl)oxazolo[5,4-d]pyrimidin-7-yl)piperazin-1-yl)-2-(4-chlorophenoxy)ethanone]: 0.8 µM; for `Nc1nc(N2CCN(C(=O)COc3ccc(Cl)cc3)CC2)c2nc(C3CC3)oc2n1` [Example 185, 5-amino-2-cyclopropyl-7-[4-(4-chlorophenoxyacetyl)piperazin-1-yl]-oxazolo[5,4-d]pyrimidine]: 1.76 µM.

Still in this test, the particulars now being: lowest concentration giving 50% inhibition of the MLR; 6 days coculture, 3H-thymidine incorporation.
`Nc1nc(N2CCN(C(=O)COc3ccc(Br)cc3)CC2)c2nc(-c3ccc(F)cc3)sc2n1` [Example 128, 5-amino-2-(4-fluorophenyl)-7-(4-[2-(4-bromophenoxy)acetyl]-piperazin-1-yl)-thiazolo[5,4-d]pyrimidine] returned an IC50 of 0.38 µM.
